Results as given in paper PMC11329928, “Design, synthesis and structure-activity relationship (SAR) studies of an unusual class of non-cationic fatty amine-tripeptide conjugates as novel synthetic antimicrobial agents” (Frontiers in Pharmacology, 2024).
Counter-ions that a name gives are not always drawn.

Key:
[1] = system: Streptococcus pneumoniae R6; test: Growth inhibition / lysis screening of planktonic cultures (OD550/600); format: cell-based; design: key: (+++) full inhibition; (++) partial inhibition; (+) growth retardation; -: (−) no effect; settings: S. pneumoniae R6, 50 and 100 μM compound added at early logarithmic phase (T1), OD550/600 followed 10 h, 37°C
Description: (§1) Planktonic cultures of selected pathogens (S. pneumoniae R6, S. pyogenes ^T, Staphylococcus aureus ^T, Escherichia coli DH10B, and Pseudomonas aeruginosa PAO1 strains) on early logarithmic-phase (T1) were assayed for their sensitivity to a broad range of DICAM compounds, as indicated in Table 1. Their bacteriostatic or lytic effect was first tested by measuring the variation of the OD550/600 as a function of time (10 h) when (50/100 μM) DICAMs were added, compared to untreated controls. The screening results, summarized in Table 1, evidenced that a potent antimicrobial activity may exist even when the negative charge of the peptide was higher than in the prototype compounds.
(§2) Susceptibility to DICAMs was first tested by growth-inhibition assays at 50 and 100 μM of compound. Briefly, working solutions at 5 mM or 10 mM DICAM in pure DMSO were prepared from DICAM stocks (40 mM in pure DMSO) and diluted with fresh culture medium to 5× the desired final concentration. Aliquots (50 µL) of these solutions were added to 200 µL of bacterium cultures grown to early exponential phase (OD550/600 c. a. 0.15–0.2 in sterile 96-well plates (Cultek, Spain). Incubation continued for 10 h at 37°C and turbidity (OD550/600) values were measured every 20 min to monitor growth and lysis, using a VersaMax microplate reader (Molecular Devices; United Kingdom). Next, the activity dependence on DICAM’s dose was examined by measuring the turbidity of treated and untreated cultures as a function of time. Also, the decay of bacterial viability (CFU/mL) at selected times of treatment was assessed by colony counting on LB-agar or TSA plates after overnight incubation at 37°C. By default, 10 μL of 10-fold serially diluted samples were plated, which set the lower detection limit at 10^2 CFU/mL (10^1 CFU/mL when 100 μL of the undiluted sample was seeded).

Streptococcus pyogenes T = test: Growth inhibition screening of planktonic cultures (OD550/600); format: cell-based; design: key: (+++) full inhibition; (++) partial inhibition; (+) growth retardation; -: (−) no effect; settings: S. pyogenes T, 50 and 100 μM compound added at T1, OD550/600 followed 10 h, 37°C
Description: as §1, §2

S. pneumoniae D39 = format: cell-based, Streptococcus pneumoniae; settings: for SC (stationary concentration, Δlog = 0), S. pneumoniae D39 / EC50 / Δlogmax, S. pneumoniae D39: 1 h treatment, 37°C, Hill fit; for SC (stationary concentration, Δlog = 0), S. pneumoniae D39: C + Y medium, added at T1, 10^7–10^8 CFU/mL, CFU vs untreated controls; for EC50 / Δlogmax, S. pneumoniae D39: C + Y; for EC50: read-out: K 1/2 (concentration yielding half-variation in Δlogmax), S. pneumoniae D39 (converted); for Reduction of the number of viable cells at 3 × SC, S. pneumoniae: after 1-h incubation at 3 × SC values; for Δlogmax, S. pneumoniae D39: maximum variation in viability
Source text: First, the substitution of the fatty amino chain of 18 carbon atoms of the reference compound DICAM 2 by either an OMe group (methylated tripeptide DICAM 5) or an amine with 12 carbon atoms (DICAM 9) abolished the activity against all three pathogens. However, the activity remained intact when the chain of the fatty amine of prototypes DICAMs 1 and 4 was two carbon atoms shorter (DICAM 10 and DICAM 12, respectively), based on S. pneumoniae and S. pyogenes results. […] Third, Glu and Ala were tolerated as C-terminal residues of the lipotripeptides. […] In addition, deletion of the C-terminal Glu (DICAM 13) eradicated the activity against S. pneumoniae and S. aureus. However, a delay and small inhibition of S. pyogenes ^T growth was still observed. Fourth, Glu (DICAMs 19 and 20) and Orn (DICAMs 21 and 22) were tolerated as N-terminal residues, with the impact of these modifications being pathogen-dependent. […] SAR studies continued by measuring the dose dependence of DICAM’s activity at T1 with all the compounds found to be active against S. pyogenes or S. aureus in the initial screening, and all but one compound in the case of S. pneumoniae. The OD values of bacterial cultures were monitored after DICAM addition, and the decrease in the number of viable bacteria was measured relative to controls (Figures 4–6; Supplementary Figure S1). As antibacterial efficacy may decline with the bacterium dose in the inoculum ([Belley et al., 2009]; [Udekwu et al., 2009]; [Luca et al., 2013]), the assays were performed using the bacterial concentrations necessary for the fluorescence experiments in Section 2.3 (10^7–10^8 CFU/mL). At these high bacterial densities, MICs were determined as the DICAM concentration at which bacteria neither grow nor are killed (the stationary concentration (SC)), following [Udekwu et al., 2009]. By fitting the logarithmic plot of cell viability decrease vs. the DICAM dose to a Hill function (see Section 5.2.3.1) we were able to determine the maximum variation in viability (Δlogmax = ∆log f - ∆log 0, where ∆log f and ∆log 0 are the upper and lower limits of Δlog) in the assay conditions, the SC concentration (Δlog = 0), the dose required for half-variation in Δlogmax (K 1/2), and the cooperativity of the antimicrobial effect (N H).
as §2
As antibacterial efficacy may decline with the bacterium dose in the inoculum ([Belley et al., 2009]; [Udekwu et al., 2009]; [Luca et al., 2013]), activity assays were performed using the bacterial concentrations required for the fluorescence experiments in Section 2.3 (10^7–10^8 CFU/mL). At such bacterial densities, MICs were determined as the DICAM concentration at which bacteria neither grow nor are killed under assay conditions (the stationary concentration (SC)), as indicated in Section 2.2. […]

[2] = system: human fetal lung fibroblasts IMR-90; format: cell-based; settings: 48 h
Description: DICAM’s cytotoxicity was determined employing a modified MTT assay as described elsewhere ([Antúnez-Mojica et al., 2016]) using human lung carcinoma epithelial cells A549, human fetal lung fibroblasts IMR-90, and human HeLa cervix carcinoma cells treated with increasing concentrations of DICAMs (0.8–200 µM range). A549 cells were grown in RPMI 1640 (Gibco; Fisher Scientific, Spain) supplemented with 10% FCS, 2 mM glutamine, 100 IU/mL penicillin and 100 μg/mL streptomycin. IMR-90 and HeLa cells were cultured in DMEM (Gibco; Fisher Scientific, Spain) supplemented with 10% FCS, 2 mM L-glutamine, 1 mM pyruvate, […] penicillin, 100 μg/mL streptomycin and 40 μg/mL gentamycin. Cell viability was assessed after 48 h exposure to DICAMs. Vinblastine was used as a positive control. IC50 value is the concentration that gives 50% inhibition of cell growth and was determined using SigmaPlot (Systat) fitting to a Four Parameter Logistic curve.

SMILES | Growth halt or lysis (50/100 μM), Spn [1] | Growth halt or lysis (50/100 μM), Spy T (Streptococcus pyogenes T) | SC (stationary concentration, Δlog = 0), S. pneumoniae D39 (S. pneumoniae D39) | IC50 [2] [µM] | EC50 (S. pneumoniae D39) [µM] | Bacterial viability reduction at ≈ 5 μM (S. pneumoniae D39; S. pneumoniae D39, within 60 min, ≈ 5 μM) [%] | Reduction of the number of viable cells at 3 × SC, S. pneumoniae (S. pneumoniae D39) | Δlogmax, S. pneumoniae D39 (S. pneumoniae D39) [logarithmic units] | Bacterial viability reduction at 10 μM (S. pneumoniae D39; S. pneumoniae D39, within 60 min, 10 μM) [%]
CCCCCCCCCCCCCCCCCCNC(=O)[C@H](C)NC(=O)[C@H]1CCCN1C(=O)[C@H](C)N [DICAM 14, Ala- Pro -Ala-NH-C18H37 · HCl] | +++ | +++ | ∼33 µM | 7.69 ± 0.06 |  |  |  |  | 
CCCCCCCCCCCCCCCCCCNC(=O)[C@H](CCC(=O)O)NC(=O)[C@H]1CCCN1C(=O)[C@H](CCC(=O)O)NC(=O)OCc1ccccc1 [DICAM 19, Cbz-Glu- Pro -Glu-NH-C18H37] | +++ | +++ | 3.0 ± 0.8 µM | 44 ± 1 | ~5 | > 99.5 | 99.2%–99.8 | 3.0 ± 0.2 | 
CCCCCCCCCCCCCCCCCCNC(=O)[C@H](CCC(=O)O)NC(=O)[C@H]1CCCN1C(=O)[C@@H](N)CCC(=O)O [DICAM 20, Glu- Pro -Glu-NH-C18H37 · HCl] | +++ | +++ | 3.0 ± 0.7 µM | 78.6 ± 0.1 | 4.4 ± 0.6 |  | 99.2%–99.8 | 3.0 ± 0.1 | > 99.5
CCCCCCCCCCCCCCCCCCNC(=O)[C@H](CCC(=O)O)NC(=O)[C@H]1CCCN1C(=O)[C@H](CCCN)NC(=O)OCc1ccccc1 [DICAM 21, Cbz-Orn- Pro -Glu-NH-C18H37] | +++ | +++ | 8 ± 1 µM | 86 ± 15 | 9 ± 1 |  |  | 1.9 ± 0.1 | 
CCCCCCCCCCCCCCCCCCNC(=O)[C@H](CCC(=O)O)NC(=O)[C@H]1CCCN1C(=O)[C@@H](N)CCCN [DICAM 22, Orn- Pro -Glu-NH-C18H37 · HCl] | +++ | ++ | 20 ± 8 µM | 58 ± 0.4 | 22 ± 8 |  |  | 1.4 ± 0.4 | 
CCCCCCCCCCCCCCCCCCNC(=O)[C@H](CCC(=O)O)NC(=O)[C@H]1CCCN1C(=O)[C@H](C)NC(C)=O [DICAM 24, Ac-Ala- Pro -Glu-NH-C18H37] | +++ | +++ | 4 ± 0.8 µM | 43.8 ± 0.6 | 6.1 ± 0.6 |  |  | 2.2 ± 0.1 | 
